This test relates to CEM cells HIV-1 protection, formazan growth assay. Briefly: NCI AIDS Antiviral Assay. Particulars: for IC50: measured here: growth of uninfected CEM cells. Summed up:
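Protection of CEM cells against HIV-1 was scored from cell growth (soluble formazan) across five concentrations, with parallel uninfected cells. Lack of protection may reflect toxicity.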

This is an account of results in PubChem BioAssay AID179 (DTP/NCI, 2004).

Activity calls are given as the source filed them.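 How the source made its calls: active means compounds giving half or more protection of infected cells from virus-caused growth loss, again on retest; inactive means the rest.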 Some results are limits rather than exact numbers.

For the molecule `NC1=CN(CCCO)C2=N/C(=C\c3ccccc3)C(=O)N12`, the EC50 – broadly, the midpoint of the concentration-response curve – was > 200 µM and the IC50 – broadly, the midpoint of a concentration-inhibition curve – is > 200 µM.

In the case of `CN(N)c1ncnc2c1cnn2C`, the EC50 is > 209 µM and the IC50 was > 209 µM.

Turning to `C=CCCCC12CCCc3cccc(c31)NC2=O` (stereo unspecified), the EC50 is > 151 µM and the half-maximal inhibitory concentration (IC50) stood at 63.1 µM.

Regarding `Cc1ccc(/C=C2\CCCC(CN3CCCCC3)C2=O)cc1` (stereo unspecified), the EC50 is > 200 µM and the IC50 is 0.724 µM.

On to `O=C1CCC(=O)C(C(=O)CCC(=O)Nc2cccc(Cl)c2)C1` (stereo unspecified), for which the EC50 was > 562 µM and the IC50 is > 562 µM.

With `[Cl][Tb]([Cl])[Cl]`, the outcome was inactive.

On to `Cc1cn(C2C[C@H]3ONC[C@H]3O2)c(=O)[nH]c1=O` (stereo partly specified), for which the EC50 is > 200 µM and the IC50 is > 200 µM.

In the case of `Cc1ccc(C2=C(c3ccc(C)cc3)C(c3ccc(C)cc3)=C(c3ccc(C)cc3)C2=O)cc1`, the EC50 is > 16.2 µM and the IC50 was > 16.2 µM.

Regarding `CC(=O)NC(Cc1ccccc1)NC(=O)O` (stereo unspecified), the EC50 is > 200 µM and the half-maximal inhibitory concentration (IC50) was > 200 µM.

With `C(=C(c1ccccc1)c1ccccc1)=C(c1ccccc1)c1ccccc1`, the EC50 was > 28.8 µM and the IC50 was > 28.8 µM.

Consider `CC(=N/NC(=S)N1CCCCC1)/C(C)=N\NC(=S)N1CCCCC1`, for which the EC50 is > 200 µM and the IC50 is 2.24 µM.

As to `N#Cc1c(NC(=S)NC(=O)c2ccccc2)nc2c(c1-c1ccccc1)CCC2`, the EC50 was > 100 µM and the IC50 is 93.3 µM.

`O=C(CC1CCN(C(=O)c2ccccc2)C(Cc2c[nH]c3ccccc23)C1O)N1CCCC1` (stereo unspecified): the EC50 is > 200 µM and the IC50 was > 200 µM.

`COc1cc(CNc2nc3cc(C(F)(F)F)ccc3nc2C(=O)O)cc(OC)c1OC`: the EC50 was > 200 µM and the half-inhibitory concentration (IC50) was 97.7 µM.

As for `CC(=O)OCC(OC(C)=O)C(OC(C)=O)C(/C=N\Nc1nc2ccccc2c(=O)[nH]1)OC(C)=O` (stereo unspecified), the EC50 was > 200 µM and the IC50 was > 200 µM.

With `Cc1ccc(C)n1-c1ccccc1C1SCCCS1`, the EC50 is > 200 µM and the IC50 is 195 µM.

Take `O=C(O)CCc1cccc2c1oc1c(CCC(=O)O)cccc12`: the EC50 is > 794 µM and the IC50 was 191 µM.

Turning to `CCc1cccc(CC)c1NC(=O)C1=C(C)NC(C)=C(C(=O)Nc2c(CC)cccc2CC)C1c1ccc2c(c1)OCO2`, the EC50 is > 44.7 µM and the IC50 worked out at 23.4 µM.

As to `CC(C)(C)C[PH+](CC[PH+](CC(C)(C)C)CC(C)(C)C)CC(C)(C)C.[C-]#[O+].[C-]#[O+].[C-]#[O+].[C-]#[O+].[Mo]`, the EC50 was > 3.47 µM and the IC50 was > 3.47 µM.

On to `CCOC(CN=C=S)OCC`, for which the EC50 is > 200 µM and the IC50 was 27.5 µM.

For `COc1cc2c3c(c1)ncn3C(=O)CS2`, the EC50 was > 200 µM and the IC50 was > 100 µM.

`CCO[C@@H]1N(C2CC(N=[N+]=[N-])C(CO)O2)C(=O)NC(=O)[C@]1(C)Cl` (stereo partly specified): the EC50 is > 200 µM and the concentration for half-maximal inhibition (IC50) was > 200 µM.

As for `Cc1cccc(NC(=O)Nc2ccccc2F)n1`, the EC50 is > 200 µM and the IC50 was > 200 µM.

As to `CC(=O)OCN(C)c1nc(N(C)COC(C)=O)nc(N(C)COC(C)=O)n1`, the EC50 was > 50.1 µM and the IC50 was > 50.1 µM.

In the case of `O=C1CC[C@@]23CC(=O)O[C@@H]2CCCC3C1` (stereo partly specified), the result was inactive.

As for `CCCCCCCCCCCCCCCc1ncc(C)[nH]1`, the EC50 was > 24.5 µM and the IC50 was > 24.5 µM.

As to `OCC1OC(c2scc3c(=S)nc[nH]c23)C(O)C1O` (stereo unspecified), the EC50 is > 200 µM and the IC50 amounted to 12.6 µM.

Turning to `CCC(O)CCCCCCCCCCCCCCC(=O)O` (stereo unspecified), the result was inactive.

As to `O=[N+]([O-])c1cc(Cl)ccc1Sc1ccccc1`, the result was inactive.

For the molecule `O=C1c2ccccc2-c2c1c(-c1ccccc1)c1n2C2(C(=O)c3ccccc3C2=O)C2C(=O)N(c3ccccc3)C(=O)C12` (stereo unspecified), the EC50 was > 200 µM and the IC50 amounted to 120 µM.
